Results as given in EP0396317B1, “Pharmaceutical composition” (priority 1989, dated 1990).

Assay: solubility and pH-dependent separation of the carbenoxolone/chlorhexidine complex
Type: physicochemical

## [H]/N=C(\N/C(=N/[H])NCCCCCCNC(=N)NC(=N)Nc1ccc(Cl)cc1)Nc1ccc(Cl)cc1 [chlorhexidine]
pH 9.0 or more
  behaviour of the complex suspension at high pH: can be separated by filtration
pH less than 3.5 / 3.5 or less
  behaviour of the complex suspension at low pH: will remain in solution
